Source: PMC6502434, “The arginine sensing and transport binding sites are distinct in the human pathogen Leishmania” (PLoS Neglected Tropical Diseases, 2019)

Target: T1, LdAAP3 (Leishmania donovani, UniProt Q86G79)
T1 construct: native transporter in intact mid-log promastigotes, not overexpressed; no construct
T1 sequence (Q86G79 1-480): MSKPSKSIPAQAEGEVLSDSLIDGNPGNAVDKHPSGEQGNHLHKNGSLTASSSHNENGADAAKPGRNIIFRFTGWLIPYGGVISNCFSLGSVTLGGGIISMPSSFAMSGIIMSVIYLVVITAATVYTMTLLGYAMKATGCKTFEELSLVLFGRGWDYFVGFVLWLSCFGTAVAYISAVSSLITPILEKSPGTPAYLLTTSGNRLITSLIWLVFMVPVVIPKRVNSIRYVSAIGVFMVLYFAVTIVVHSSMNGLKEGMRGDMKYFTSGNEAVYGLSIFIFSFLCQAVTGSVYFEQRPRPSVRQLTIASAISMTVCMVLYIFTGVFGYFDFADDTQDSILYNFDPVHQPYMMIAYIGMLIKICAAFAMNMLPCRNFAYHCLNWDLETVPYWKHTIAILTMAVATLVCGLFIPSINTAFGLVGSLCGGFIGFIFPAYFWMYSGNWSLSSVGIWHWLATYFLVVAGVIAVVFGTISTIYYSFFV
Assay: inhibition of [3H]arginine uptake by intact promastigotes, rapid filtration
Format: cell-based
Settings: read-out: Percent arginine transport inhibition
Source text: inhibition of [3H]arginine uptake by intact promastigotes, rapid filtration on LdAAP3

`N=C(N)c1ccc(OCCCCCOc2ccc(C(=N)N)cc2)cc1` [compound 2, Pentamidine] showed an inhibition at 100 µM of 38%.

Work on `CNC(=N)NCCC[C@H](N)C(=O)O` [compound 3, N-Methyl L-Arginine Acetate] yielded an inhibition at 1000 µM of 66%.

With `NC(=O)NCCC[C@H](N)C(=O)O` [compound 9, L-citrulline] the inhibition at 1000 µM was 10%.

`N=C(N)NOCC[C@H](N)C(=O)O` [compound 4, Canavanine] showed an inhibition at 500 µM of 40%.
